According to patent EP1099439A2, “Use of apo B secretion/MTP inhibitors” (Pfizer Products Inc., priority 1999, dated 2001):

Test system: intestinal fat absorption
Experiment: Intestinal fat absorption reduction determination (gravimetric fecal fat content) in dogs
Type: in vivo
Conditions: male beagles, oral gavage, dosing solution 0.5 mg/mL, 1 mL per kg body weight, single daily dose on Days 0 and 5-12; fecal fat determined gravimetrically
Excerpt: Healthy, young adult (1-2 years of age) male beagles (Marshall Farms, North Rose, New York, NY 14516) weighing 11.45 - 12.45 kg at the start of the treatment period were employed as test subjects. The animals were housed individually in standard caging meeting or exceeding the USDA regulations (U.S. Department of Agriculture, Animal Welfare, Final Rules. 9 C.F.R. Parts 1-3, 1995).
The test compound was provided as a water-soluble powder. The dosing solution, administered by oral gavage, was provided employing a 0.025 M citrate buffer (approx. pH = 3) prepared using anyhdrous citric acid (0.4 g/mL) and anhydrous sodium citrate (0.1 g/mL) as the test vehicle. The dosing solution was prepared at 0.5 mg/mL activity so that 1 mL was delivered per kg body weight. Following a fourteen day acclimation period (designated as Days -14 to -1), during which time the test animals were evaluated for certain criteria including determination of body weight, physical examinations, and initial fecal specimen collection, a sixteen day evaluation study was effected. […]
Fecal specimens were collected daily over approximately 24 hours (±1 hr) prestudy and then beginning on Day -2 and terminating on Day 16. The fecal specimens so collected were weighed (total grams of bulk feces) frozen, stored at -26°C to -20°C and then analyzed for fecal fat content. […]

Compound | reduced intestinal fat absorption in dogs [%]
CCCCN1CCc2cc(NC(=O)c3ccccc3-c3ccc(C(F)(F)F)cc3)ccc2C1 [4'-trifluoromethyl-biphenyl-2-carboxylic acid-(2-butyl-1,2,3,4-tetrahydroisoquinolin-6-yl)-amide] | 26
CC(=O)NCCN1CCc2cc(NC(=O)c3ccccc3-c3ccc(C(F)(F)F)cc3)ccc2C1 [4'-trifluoromethyl-biphenyl-2-carboxylic acid-[2-(2-acetylaminoethyl)-1,2,3,4-tetrahydroisoquinolin-6-yl amide] | 49
